From patent US7989420B2, “Smooth muscle relaxation” (New York Medical College, priority 2006, dated 2011)

What was measured:
sGC = experiment: Western blot of sGC expression in BPA; format: cell-based, bovine; conditions: organ culture with 100 μM ALA, Western analysis
Procedure: Rings from studies on contractile function were snap-frozen in liquid nitrogen, crushed and homogenized in lysis buffer (50 mM Tris-HCl, pH 8.0, 150 mM NaCl, 1 mM EDTA, 1% Triton X-100, 0.5% sodium deoxycholate, 0.1% sodium dodecyl sulfate, 1% of a protease inhibitor cocktail (Sigma) and 1% of a phosphatase inhibitor cocktail (Sigma). The protease inhibitor cocktail included 4-(2-aminoethyl)benzenesulfonyl floride hydrocholride, aprotinin, bestatin hydrochloride, N-(trans-epoxsuccinyl)-L-leucine-4-guanidinobutylamide, leupeptine hemisulfate, pepstatin and the phosphatase inhibitor cocktail included sodium orthovandate, sodium molybdate, sodium tartarate, and imidazole. Protein concentration was determined and 30 μg of protein samples were prepared in electrophoresis sample buffer containing 3% SDS and 3% β-mercaptoethanol and were separated using a 12% gel SDS-PAGE electrophoresis. Membranes were blocked for 1 h in TBST-5% milk and incubated overnight with phospho-VASP antibodies (diluted 1:1000). Membranes were exposed to a secondary horse radish peroxidase linked antibody and visualized with an ECL kit (Amersham). […] Membranes were subsequently washed, blocked and detected for total VASP. […] Expression of sGC was detected with β-sGC subunit antibodies (diluted 1:2000), employing anti-rabbit secondary antibodies, and a protocol where membranes were blocked for 2 h. […]

bovine bronchi = experiment: Force generation to acetylcholine in organ cultured bovine bronchi; format: cell-based; conditions: organ culture with 0.1 mM ALA for 24 hrs vs absence of ALA
Procedure: Studies on the Regulation of Contractile Function. Following the overnight incubation, arterial rings were mounted on wire hooks attached to Grass (FT03) force displacement transducers for measurement of changes in isometric force. Tension was adjusted to 5 g, which is the optimal passive force for maximal contraction. Changes in force were recorded on a Grass polygraph (model 7), while vessels were incubated in 10-ml baths (Metro Scientific), which were individually thermostated (37° C.) in Krebs buffer gassed with 21% O2-5% CO2 (balance N2) in the absence of compounds used to modulate BPA protoporphyrin IX levels. Arteries were incubated for 1 h during which passive tension was adjusted to maintain 5 grams. […] The effects of ODQ on relaxation to NO was determined by first contracting organ cultured control and ODQ-treated BPA with 1 μM 5-HT (after the initial exposure to increasing concentrations of 5-HT and a 30 min equilibration in Krebs).
Bovine bronchi were isolated from the same lungs used for pulmonary arteries, and studied for changes in protoporphyrin IX fluorescence and force under the same conditions as bovine pulmonary arteries described above. Superoxide was detected by the chemiluminescence produced by 5 μM lucigenin, which was detected by photon counting in a scintillation counter.

[1] = humans, factor which limited the doses of ALA, reference (13); cited from earlier work
aorta = experiment: Contraction to PDBu of aorta from rats treated with ALA in vivo; set-up: species or system rat; conditions: single dose 60 mg/kg ALA i.p., 24 hours after treatment
Procedure: The rats were pretreated with 60 mg/kg ALA or with a saline vehicle (i.p.). After 24 hours they were anesthetized with 50 mg/kg sodium pentobarbital and the aorta was removed for in vitro studies. Isolated aortic rings were studied for changes in protoporphyrin IX fluorescence and force under the same conditions similar to those used for bovine pulmonary arteries described above, except that 1 gram of passive force was used.

[2] = test system: VASP serine-239 phosphorylation (cGMP-dependent protein kinase activation); experiment: Western blot of VASP serine-239 phosphorylation in BPA; format: cell-based, bovine; conditions: organ culture with 100 μM ALA
Procedure: Rings from studies on contractile function were snap-frozen in liquid nitrogen, crushed and homogenized in lysis buffer (50 mM Tris-HCl, pH 8.0, 150 mM NaCl, 1 mM EDTA, 1% Triton X-100, 0.5% sodium deoxycholate, 0.1% sodium dodecyl sulfate, 1% of a protease inhibitor cocktail (Sigma) and 1% of a phosphatase inhibitor cocktail (Sigma). The protease inhibitor cocktail included 4-(2-aminoethyl)benzenesulfonyl floride hydrocholride, aprotinin, bestatin hydrochloride, N-(trans-epoxsuccinyl)-L-leucine-4-guanidinobutylamide, leupeptine hemisulfate, pepstatin and the phosphatase inhibitor cocktail included sodium orthovandate, sodium molybdate, sodium tartarate, and imidazole. Protein concentration was determined and 30 μg of protein samples were prepared in electrophoresis sample buffer containing 3% SDS and 3% β-mercaptoethanol and were separated using a 12% gel SDS-PAGE electrophoresis. Membranes were blocked for 1 h in TBST-5% milk and incubated overnight with phospho-VASP antibodies (diluted 1:1000). Membranes were exposed to a secondary horse radish peroxidase linked antibody and visualized with an ECL kit (Amersham). The membranes were subsequently exposed to X-OMAT autoradiography paper (Kodak). Membranes were stripped with TRIS-HCl buffer with 100 mM β-mercaptoethanol at 50° C. for 30 min. Membranes were subsequently washed, blocked and detected for total VASP. Each measurement of phosphorylated VASP was normalized to the total level of VASP, and data are reported as the percent of the levels of phosphorylated VASP seen in control arteries not exposed to agents which modulate the activity of sGC. Expression of sGC was detected with β-sGC subunit antibodies (diluted 1:2000), employing anti-rabbit secondary antibodies, and a protocol where membranes were blocked for 2 h. After analyzing for sGC protein expression, blots were stripped and re-probed for the detection of α-actin protein levels, which were used for normalization of data for statistical analysis based on protein loading.

## NCC(=O)CCC(=O)O [ALA, δ-aminolevulinic acid]
sGC
  levels of sGC relative to BPA organ cultured in the absence of ALA: 71±19%
Bovine bronchi
  force generation to 10 μM acetylcholine (ACh): inhibits (relaxes) force generation
[1]
  systemic and pulmonary artery pressure: reduction in systemic and pulmonary artery pressure
aorta
  contraction of aorta to 10 μM PDBu: decreased contraction
[2]
  VASP serine-239 phosphorylation: increase in VASP phosphorylation
